Experimental data taken from PubChem BioAssay AID1794801 (Yongcheng Song lab at Baylor College of Medicine, 2022).
Calls of active or inactive are those of the source.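 How the source made its calls: active means compounds that disrupt AF9 binding to the DOT1L peptide with an IC50 under 30 µM; inactive means the rest.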

Biological target: Protein AF-9 (Homo sapiens) (UniProt P42568)
Assay: AF9–DOT1L protein-protein binding disruptors – biochemical, AlphaLISA, MBP-tagged AHD, biotinylated peptide, dose response (AID 1794801)
Conditions: MBP-AF9 AHD and biotin-DOT1L peptide

Chain of Protein AF-9 (Homo sapiens) (P42568 whole entry, looked up): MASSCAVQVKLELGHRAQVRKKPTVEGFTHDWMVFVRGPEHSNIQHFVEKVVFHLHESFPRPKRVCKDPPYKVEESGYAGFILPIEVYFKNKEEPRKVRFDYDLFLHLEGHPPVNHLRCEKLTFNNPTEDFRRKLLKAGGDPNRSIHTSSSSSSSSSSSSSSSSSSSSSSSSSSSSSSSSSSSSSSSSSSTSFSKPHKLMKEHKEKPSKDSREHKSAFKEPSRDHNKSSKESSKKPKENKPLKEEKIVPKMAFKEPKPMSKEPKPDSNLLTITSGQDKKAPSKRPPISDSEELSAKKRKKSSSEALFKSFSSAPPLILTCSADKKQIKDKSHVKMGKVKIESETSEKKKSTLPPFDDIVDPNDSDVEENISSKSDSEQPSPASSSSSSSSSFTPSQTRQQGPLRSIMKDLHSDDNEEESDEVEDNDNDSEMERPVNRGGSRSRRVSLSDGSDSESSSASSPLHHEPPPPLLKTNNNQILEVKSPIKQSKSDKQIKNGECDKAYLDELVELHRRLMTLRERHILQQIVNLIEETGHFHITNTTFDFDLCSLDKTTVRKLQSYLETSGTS

Row | Structure (SMILES) | IC50
1 | O=C(NCC1CCNCC1)c1cc2ccc(-c3ccc(N4CCCC4)cc3)cc2s1 | 5.3 µM
2 | O=C(NCC1CCNCC1)c1cc2ccc(Nc3ccc(N4CCCCC4)cc3)cc2s1 | 2.3 µM
3 | O=C(NCC1CCNCC1)c1cc2cc(-c3ccc(N4CCCCC4)cc3)ccc2s1 | 2.5 µM
4 | O=C(NCC1CCNCC1)c1cc2ccc(-c3ccc(N4CCCCC4)cc3)cc2s1 | 1.6 µM
5 | O=C(NCC1CCNCC1)c1cc2ccc(Nc3ccc(N4CCCCC4)cc3)cc2o1 | 4.6 µM
6 | NCc1ccc(-c2ccc3cc(C(=O)NCC4CCNCC4)oc3c2)cc1 | > 30 µM (inactive)
7 | O=C(NCC1CCNCC1)c1cc2cc(-c3cn[nH]c3)ccc2[nH]1 | > 30 µM (inactive)

Now from value to compound:

Row | IC50 | Structure (SMILES)
8 | 4.5 µM | O=C(NCC1CCNCC1)c1c[nH]c2cc(-c3ccc(N4CCCCC4)cc3)ccc12
9 | 2.8 µM | O=C(NCC1CCNCC1)c1cc2ccc(-c3ccc(N4CCCC4)cc3)cc2[nH]1
10 | 3.6 µM | O=C(NCC1CCNCC1)c1cc2cc(-c3ccc(N4CCCCC4)cc3)ccc2[nH]1
11 | 2.9 µM | O=C(NCC1CCNCC1)c1c[nH]c2cc(-c3ccc(N4CCCC4)cc3)ccc12
12 | 3.3 µM | O=C(NCC1CCNCC1)c1cc2ccc(-c3ccc(N4CCCCC4)cc3)cc2[nH]1
13 | 2.7 µM | O=C(NCC1CCNCC1)c1cc2cc(-c3ccc(N4CCCC4)cc3)ccc2[nH]1
